Laboratory results reported in ChEMBL document CHEMBL1157430, “Design, synthesis, and structure-activity relationship study of a novel class of ORL1 receptor antagonists based on N-biarylmethyl spiropiperidine” (Bioorg Med Chem Lett, 2008).

What was measured:
[1] = Displacement of [125I]Tyr14-NC/OFQ from human ORL1 expressed in CHO cells; format: cell-based; details: read-out: I50
[2] = Lipophilicity Log D at pH 7.4 by shake flask method; format: physicochemical; details: buffer
CHO = test: Displacement of [125I]Tyr14-NC/OFQ from human ORL1 expressed in CHO cells at 1 uM; format: cell-based
[3] = Antagonist activity at human ORL1 expressed in CHO cells by GTPgammaS binding assay; format: cell-based; details: read-out: I50
Mu-type opioid receptor = Mu-type opioid receptor (Homo sapiens, UniProt P35372); test: Displacement of [3H]diprenorphin from human cloned mu opioid receptor expressed in CHO cells; format: cell-based
[4] = target: Kappa-type opioid receptor (Homo sapiens, UniProt P41145); test: Displacement of [3H]U69593 from human cloned kappa opioid receptor expressed in CHO cells; format: cell-based
[5] = Metabolic stability in human liver microsomes at 1 uM after 30 mins; format: ADME, Microsome; details: read-out: Stability
[6] = Metabolic stability in rat liver microsomes at 1 uM after 30 mins; format: ADME, Microsome; details: read-out: Stability
[7] = target: Voltage-gated inwardly rectifying potassium channel KCNH2 (Homo sapiens, UniProt Q12809); test: Displacement of [35S]MK499 from human ERG in HEK293 cell membrane
Chain of Voltage-gated inwardly rectifying potassium channel KCNH2 (Q12809 whole entry): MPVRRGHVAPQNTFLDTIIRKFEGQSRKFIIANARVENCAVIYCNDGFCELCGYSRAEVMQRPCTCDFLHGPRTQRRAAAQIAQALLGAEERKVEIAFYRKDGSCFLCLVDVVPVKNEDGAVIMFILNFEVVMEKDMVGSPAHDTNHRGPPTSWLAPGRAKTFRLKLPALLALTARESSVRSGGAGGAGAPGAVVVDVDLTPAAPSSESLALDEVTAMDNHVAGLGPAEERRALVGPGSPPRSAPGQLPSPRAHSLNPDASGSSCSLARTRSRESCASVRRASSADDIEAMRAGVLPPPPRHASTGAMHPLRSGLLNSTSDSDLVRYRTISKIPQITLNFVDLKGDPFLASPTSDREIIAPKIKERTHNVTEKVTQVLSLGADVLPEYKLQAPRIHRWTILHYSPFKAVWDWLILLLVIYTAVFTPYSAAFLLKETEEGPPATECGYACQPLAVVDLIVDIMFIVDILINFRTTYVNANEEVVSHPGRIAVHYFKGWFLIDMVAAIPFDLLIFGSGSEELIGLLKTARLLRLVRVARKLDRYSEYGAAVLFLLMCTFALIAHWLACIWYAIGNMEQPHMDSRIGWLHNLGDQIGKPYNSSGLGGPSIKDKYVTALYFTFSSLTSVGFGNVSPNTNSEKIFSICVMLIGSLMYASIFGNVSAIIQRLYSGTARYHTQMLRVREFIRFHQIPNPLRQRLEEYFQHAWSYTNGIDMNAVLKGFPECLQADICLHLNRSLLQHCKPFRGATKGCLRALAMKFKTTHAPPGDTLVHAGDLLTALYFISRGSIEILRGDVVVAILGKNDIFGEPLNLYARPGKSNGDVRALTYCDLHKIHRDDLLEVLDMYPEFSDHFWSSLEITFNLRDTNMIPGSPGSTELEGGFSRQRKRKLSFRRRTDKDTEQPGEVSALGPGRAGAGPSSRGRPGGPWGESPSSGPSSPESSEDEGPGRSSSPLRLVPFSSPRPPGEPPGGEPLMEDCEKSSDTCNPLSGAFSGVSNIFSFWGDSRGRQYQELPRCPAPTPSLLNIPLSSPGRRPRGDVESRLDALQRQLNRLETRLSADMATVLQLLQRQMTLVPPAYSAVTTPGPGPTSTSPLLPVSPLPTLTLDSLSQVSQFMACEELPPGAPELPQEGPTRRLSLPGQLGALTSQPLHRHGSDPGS

Chain of Kappa-type opioid receptor (P41145 whole entry): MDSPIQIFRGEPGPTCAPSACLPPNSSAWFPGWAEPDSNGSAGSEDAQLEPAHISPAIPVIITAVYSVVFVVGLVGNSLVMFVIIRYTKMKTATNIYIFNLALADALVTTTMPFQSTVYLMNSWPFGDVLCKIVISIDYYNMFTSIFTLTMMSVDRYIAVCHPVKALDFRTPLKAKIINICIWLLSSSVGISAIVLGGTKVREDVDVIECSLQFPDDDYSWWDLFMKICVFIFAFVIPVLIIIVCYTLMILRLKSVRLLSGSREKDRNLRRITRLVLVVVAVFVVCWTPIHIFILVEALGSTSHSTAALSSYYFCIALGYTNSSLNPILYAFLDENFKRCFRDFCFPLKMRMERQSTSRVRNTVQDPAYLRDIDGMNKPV
Chain of Mu-type opioid receptor (P35372 whole entry): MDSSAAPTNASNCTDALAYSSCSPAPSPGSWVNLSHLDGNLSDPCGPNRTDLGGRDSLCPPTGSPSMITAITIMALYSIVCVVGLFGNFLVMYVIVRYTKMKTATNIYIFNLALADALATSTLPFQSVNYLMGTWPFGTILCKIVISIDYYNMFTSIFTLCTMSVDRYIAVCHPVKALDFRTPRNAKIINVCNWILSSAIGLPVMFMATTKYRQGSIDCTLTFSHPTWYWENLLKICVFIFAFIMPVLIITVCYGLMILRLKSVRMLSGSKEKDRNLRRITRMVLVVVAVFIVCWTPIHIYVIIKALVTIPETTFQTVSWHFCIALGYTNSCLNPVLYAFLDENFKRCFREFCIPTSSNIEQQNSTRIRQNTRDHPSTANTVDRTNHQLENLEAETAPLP

Structure (SMILES) | IC50 [1] [nM] | logD [2] | further results
Cc1nn(-c2ncccn2)cc1CN1CCC2(CC1)OCc1ccccc12 | 93 | 2.9 | –
Cc1nn(-c2ncccc2NS(C)(=O)=O)cc1CN1CCC2(CC1)OCc1ccccc12 | 11 | 2.1 | –
c1cncc(-c2cccc(CN3CCC4(CC3)OCc3ccccc34)c2)c1 | > 1000 | – | inhibition (CHO): 45%
Cc1nn(-c2c(Cl)cccc2NS(C)(=O)=O)cc1CN1CCC2(CC1)OCc1ccccc12 | 1.9 | 2.1 | IC50 (Mu-type opioid receptor): > 10000 nM; IC50 [4]: > 10000 nM; remaining at 0.5 h, 1 µM [5]: 54%; remaining at 0.5 h, 1 µM [6]: 69%; IC50 [7]: 17000 nM; IC50 [3]: 0.53 nM
Cc1nn(-c2ncccc2Cl)cc1CN1CCC2(CC1)OCc1ccccc12 | 4.5 | 3.1 | IC50 (Mu-type opioid receptor): 7400 nM; IC50 [4]: > 10000 nM; remaining at 0.5 h, 1 µM [5]: 60%; remaining at 0.5 h, 1 µM [6]: 6%; IC50 [3]: 2.7 nM
Cc1nn(-c2cnccn2)cc1CN1CCC2(CC1)OCc1ccccc12 | 200 | 3.5 | –
c1cc(CN2CCC3(CC2)OCc2ccccc23)cc(-c2ccncc2)c1 | > 1000 | – | inhibition (CHO): 18%
c1cncc(-c2ccc(CN3CCC4(CC3)OCc3ccccc34)cc2)c1 | > 1000 | – | inhibition (CHO): 15%
Cc1cccnc1-n1cc(CN2CCC3(CC2)OCc2ccccc23)c(C)n1 | 2.6 | 2.7 | IC50 (Mu-type opioid receptor): 4400 nM; IC50 [4]: > 10000 nM; remaining at 0.5 h, 1 µM [5]: 64%; remaining at 0.5 h, 1 µM [6]: 1%; IC50 [7]: 13000 nM; IC50 [3]: 2.6 nM
CC(=O)Nc1cccnc1-n1cc(CN2CCC3(CC2)OCc2ccccc23)c(C)n1 | 27 | 3.2 | –
Cc1nn(-c2ccc(Cl)cn2)cc1CN1CCC2(CC1)OCc1ccccc12 | 280 | 3.5 | –
c1ccc(-c2cccc(CN3CCC4(CC3)OCc3ccccc34)c2)nc1 | 310 | – | –
Cc1ccnc(-n2cc(CN3CCC4(CC3)OCc3ccccc34)c(C)n2)c1 | 19 | 3.2 | IC50 [3]: 45 nM
CNC(=O)c1cccnc1-n1cc(CN2CCC3(CC2)OCc2ccccc23)c(C)n1 | 22 | 1.4 | –

More lines, main results first:

IC50 [1] [nM] | logD [2] | Structure (SMILES) | further results
> 1000 | – | Cc1nn(-c2ccccc2)nc1CN1CCC2(CC1)OCc1ccccc12 | inhibition (CHO): 36%
9.4 | – | CCc1nn(-c2ccccc2)cc1CN1CCC2(CC1)OCc1ccccc12 | IC50 [3]: 8.4 nM
820 | 3.7 | Cc1nn(-c2ccncc2)cc1CN1CCC2(CC1)OCc1ccccc12 | –
43 | 3.9 | Cc1nn(-c2cccc(Cl)n2)cc1CN1CCC2(CC1)OCc1ccccc12 | –
40 | – | c1ccc(-n2cc(CN3CCC4(CC3)OCc3ccccc34)cn2)cc1 | –
0.65 | 3.7 | Cc1nn(-c2ccccc2Cl)cc1CN1CCC2(CC1)OCc1ccccc12 | IC50 [3]: 0.87 nM
> 1000 | – | c1ccc(-c2nc(CN3CCC4(CC3)OCc3ccccc34)cs2)cc1 | inhibition (CHO): 3%
190 | – | c1ccc(-n2cc(CN3CCC4(CC3)OCc3ccccc34)nn2)cc1 | –
130 | 3.2 | Cc1nn(-c2cccnc2)cc1CN1CCC2(CC1)OCc1ccccc12 | –
21 | – | CC(C)c1nn(-c2ccccc2)cc1CN1CCC2(CC1)OCc1ccccc12 | –
12 | 3.1 | Cc1nn(-c2ccccn2)cc1CN1CCC2(CC1)OCc1ccccc12 | IC50 [3]: 16 nM
100 | – | Cc1c(CN2CCC3(CC2)OCc2ccccc23)cnn1-c1ccccc1 | –
6.9 | > 4 | Cc1nn(-c2ccccc2)cc1CN1CCC2(CC1)OCc1ccccc12 | IC50 (Mu-type opioid receptor): 3200 nM; IC50 [4]: 9700 nM; remaining at 0.5 h, 1 µM [5]: 28%; remaining at 0.5 h, 1 µM [6]: 4%; IC50 [3]: 1.6 nM
30 | – | c1ccc(Cc2nn(-c3ccccc3)cc2CN2CCC3(CC2)OCc2ccccc23)cc1 | –
> 1000 | – | c1ccc(-c2csc(CN3CCC4(CC3)OCc3ccccc34)n2)cc1 | inhibition (CHO): -7%
> 1000 | – | c1cncc(-c2ccccc2CN2CCC3(CC2)OCc2ccccc23)c1 | inhibition (CHO): 31%
> 1000 | – | c1ccc(-n2nccc2CN2CCC3(CC2)OCc2ccccc23)cc1 | inhibition (CHO): -2%
59 | – | CC(C)(C)c1nn(-c2ccccc2)cc1CN1CCC2(CC1)OCc1ccccc12 | –
13 | – | Cc1nn(-c2ccccc2)c(C)c1CN1CCC2(CC1)OCc1ccccc12 | –
